The subject of the assay is MV-4-11 cells. Kind of assay: Gene expression microarray analysis (Affymetrix PrimeView) and GSEA. The format is cell-based, human. Set-up: RFU PODN (11730768_x_at) / Fold change /veh PODN (11730768_x_at) / RFU LINC00158 (11744669_a_at) / Fold change /veh LINC00158 (11744669_a_at) / RFU DUSP10 (11751237_a_at) / Fold change /veh DUSP10 (11751237_a_at) / RFU ID3 (11757404_x_at) / Fold change /veh ID3 (11757404_x_at) / RFU PLEKHG5 (11737974_s_at) / Fold change /veh PLEKHG5 (11737974_s_at) / RFU LRRC4B (11730491_at) / Fold change /veh LRRC4B (11730491_at) / RFU GIMAP4 (11747438_a_at) / Fold change /veh GIMAP4 (11747438_a_at) / RFU KRT8 (11758183_x_at) / Fold change /veh KRT8 (11758183_x_at) / RFU CNN1 (11734310_a_at) / Fold change /veh CNN1 (11734310_a_at) / RFU VPS37D (11726825_at) / Fold change /veh VPS37D (11726825_at) / RFU C10orf10 (11716522_x_at) / Fold change /veh C10orf10 (11716522_x_at) / RFU KIR2DL2 /// KIR2DL4 /// KIR2DL5A /// KIR2DL5B /// KIR2DS1 /// KIR2DS2 /// KIR2DS3 /// KIR2DS4 /// KIR3DL3 /// KIR3DL3 /// KIR3DS1 (11738374_at) / Fold change /veh KIR2DL2 /// KIR2DL4 /// KIR2DL5A /// KIR2DL5B /// KIR2DS1 /// KIR2DS2 /// KIR2DS3 /// KIR2DS4 /// KIR3DL3 /// KIR3DL3 /// KIR3DS1 (11738374_at) / RFU C1QL1 (11718748_at) / Fold change /veh C1QL1 (11718748_at) / RFU TMPRSS4 (11747572_a_at) / Fold change /veh TMPRSS4 (11747572_a_at) / RFU HAMP (11756126_x_at) / Fold change /veh HAMP (11756126_x_at) / RFU RNFT2 (11725882_a_at) / Fold change /veh RNFT2 (11725882_a_at) / RFU NR4A2 (11747474_a_at) / Fold change /veh NR4A2 (11747474_a_at) / RFU ABCC12 (11746883_a_at) / Fold change /veh ABCC12 (11746883_a_at) / RFU TMEM136 (11760407_x_at) / Fold change /veh TMEM136 (11760407_x_at) / RFU CLDN22 /// WWC2 (11732394_at) / Fold change /veh CLDN22 /// WWC2 (11732394_at) / RFU HLA-DPB1 (11760878_x_at) / Fold change /veh HLA-DPB1 (11760878_x_at) / RFU SPINT1 (11716480_a_at) / Fold change /veh SPINT1 (11716480_a_at) / RFU GAP43 (11754022_s_at) / Fold change /veh GAP43 (11754022_s_at) / RFU A4GNT (11735810_at) / Fold change /veh A4GNT (11735810_at) / RFU PRB3 (11715151_x_at) / Fold change /veh PRB3 (11715151_x_at) / RFU TUBB4B (11761932_at) / Fold change /veh TUBB4B (11761932_at) / RFU CAPN14 (11732068_a_at) / Fold change /veh CAPN14 (11732068_a_at) / RFU TMCC2 (11721928_a_at) / Fold change /veh TMCC2 (11721928_a_at) / RFU IRGQ (11745062_a_at) / Fold change /veh IRGQ (11745062_a_at) / RFU FAM174B (11720279_a_at) / Fold change /veh FAM174B (11720279_a_at) / RFU TMPRSS4 (11748680_a_at) / Fold change /veh TMPRSS4 (11748680_a_at) / RFU FAM212B (11763350_a_at) / Fold change /veh FAM212B (11763350_a_at) / RFU PLEKHG5 (11743358_a_at) / Fold change /veh PLEKHG5 (11743358_a_at) / RFU ZSCAN30 (11745921_a_at) / Fold change /veh ZSCAN30 (11745921_a_at) / RFU CMKLR1 (11741424_a_at) / Fold change /veh CMKLR1 (11741424_a_at) / RFU LOC101060620 /// MAPK8IP1 (11723275_at) / Fold change /veh LOC101060620 /// MAPK8IP1 (11723275_at) / RFU SPTSSB (11747773_x_at) / Fold change /veh SPTSSB (11747773_x_at) / RFU PRSS12 (11739890_at) / Fold change /veh PRSS12 (11739890_at) / RFU BIN1 (11741810_x_at) / Fold change /veh BIN1 (11741810_x_at) / RFU WNT11 (11732464_a_at) / Fold change /veh WNT11 (11732464_a_at) / RFU C10orf10 (11716521_a_at) / Fold change /veh C10orf10 (11716521_a_at) / RFU C5orf56 (11738089_at) / Fold change /veh C5orf56 (11738089_at) / RFU CYB561 (11721691_x_at) / Fold change /veh CYB561 (11721691_x_at) / RFU ANKRD19P (11752326_a_at) / Fold change /veh ANKRD19P (11752326_a_at) / RFU OR2T12 /// OR2T33 /// OR2T8 (11738714_s_at) / Fold change /veh OR2T12 /// OR2T33 /// OR2T8 (11738714_s_at) / RFU VCAN (11748164_a_at) / Fold change /veh VCAN (11748164_a_at) / RFU JSRP1 (11732532_at) / Fold change /veh JSRP1 (11732532_at) / RFU KRTAP10-11 (11738290_x_at) / Fold change /veh KRTAP10-11 (11738290_x_at) / RFU MYO3A (11730013_a_at) / Fold change /veh MYO3A (11730013_a_at) / RFU EBF3 (11725865_a_at) / Fold change /veh EBF3 (11725865_a_at) / RFU CAMK2N1 (11719241_x_at) / Fold change /veh CAMK2N1 (11719241_x_at) / RFU C5orf56 (11738088_a_at) / Fold change /veh C5orf56 (11738088_a_at) / RFU OLFML3 (11715873_a_at) / Fold change /veh OLFML3 (11715873_a_at) / RFU LOC100653217 /// NTM (11731650_a_at) / Fold change /veh LOC100653217 /// NTM (11731650_a_at) / RFU MAPK11 (11762145_a_at) / Fold change /veh MAPK11 (11762145_a_at) / RFU FIZ1 (11724087_x_at) / Fold change /veh FIZ1 (11724087_x_at) / RFU OASL (11726364_x_at) / Fold change /veh OASL (11726364_x_at) / RFU SOX15 (11748057_x_at) / Fold change /veh SOX15 (11748057_x_at) / RFU CD79A (11719716_a_at) / Fold change /veh CD79A (11719716_a_at) / RFU HIST1H1D (11736915_at) / Fold change /veh HIST1H1D (11736915_at) / RFU CASKIN2 (11723855_a_at) / Fold change /veh CASKIN2 (11723855_a_at) / RFU LOC730098 (11760151_x_at) / Fold change /veh LOC730098 (11760151_x_at) / RFU OR4N2 (11742367_at) / Fold change /veh OR4N2 (11742367_at) / RFU PRRT2 (11749266_a_at) / Fold change /veh PRRT2 (11749266_a_at) / RFU SNX32 (11753110_a_at) / Fold change /veh SNX32 (11753110_a_at) / RFU CDHR5 (11726645_a_at) / Fold change /veh CDHR5 (11726645_a_at) / RFU RCAN1 (11760418_a_at) / Fold change /veh RCAN1 (11760418_a_at) / RFU FAM167A (11723789_a_at) / Fold change /veh FAM167A (11723789_a_at) / RFU FAM26E (11764081_at) / Fold change /veh FAM26E (11764081_at) / RFU ISYNA1 (11749810_s_at) / Fold change /veh ISYNA1 (11749810_s_at) / RFU ACY1 (11761880_at) / Fold change /veh ACY1 (11761880_at) / RFU 11764098_at / Fold change /veh 11764098_at / RFU SAMD14 (11745864_x_at) / Fold change /veh SAMD14 (11745864_x_at) / RFU NPB (11741838_a_at) / Fold change /veh NPB (11741838_a_at) / RFU TMPRSS6 (11731388_a_at) / Fold change /veh TMPRSS6 (11731388_a_at) / RFU KRTAP10-2 (11738614_at) / Fold change /veh KRTAP10-2 (11738614_at) / RFU ARHGAP8 /// PRR5-ARHGAP8 (11727945_x_at) / Fold change /veh ARHGAP8 /// PRR5-ARHGAP8 (11727945_x_at) / RFU KRTAP5-7 /// NADSYN1 (11734609_at) / Fold change /veh KRTAP5-7 /// NADSYN1 (11734609_at) / RFU RASL12 (11751679_a_at) / Fold change /veh RASL12 (11751679_a_at) / RFU CDKN2B (11736163_a_at) / Fold change /veh CDKN2B (11736163_a_at) / RFU PRF1 (11729649_at) / Fold change /veh PRF1 (11729649_at) / RFU, ZNF638 /// ZNF638-IT1 / Fold change vs veh, ZNF638 /// ZNF638-IT1 / RFU, PANK3 / Fold change vs veh, PANK3 / RFU, SH3YL1 / Fold change vs veh, SH3YL1 / RFU, ZEB2 / Fold change vs veh, ZEB2 / RFU, NRIP1 / Fold change vs veh, NRIP1 / RFU, PTTG1IP / Fold change vs veh, PTTG1IP / RFU, CAPN2 / Fold change vs veh, CAPN2 / RFU, MED14 / Fold change vs veh, MED14 / RFU, SNORA58 / Fold change vs veh, SNORA58 / RFU, C1orf63 / Fold change vs veh, C1orf63 / RFU, LRRFIP1 / Fold change vs veh, LRRFIP1 / RFU, NDUFAF7 / Fold change vs veh, NDUFAF7 / RFU, SLC12A2 / Fold change vs veh, SLC12A2 / RFU, IBTK / Fold change vs veh, IBTK / RFU, ESF1 / Fold change vs veh, ESF1 / Fold change vs veh, TMEM50B / RFU, TAOK1 / Fold change vs veh, TAOK1 / RFU, ACBD3 / Fold change vs veh, ACBD3 / RFU, TMA16 / Fold change vs veh, TMA16 / RFU, RWDD3 / Fold change vs veh, RWDD3 / RFU, BCAT1 / Fold change vs veh, BCAT1 / RFU, EDEM3 / Fold change vs veh, EDEM3 / RFU, TMEM33 / Fold change vs veh, TMEM33 / RFU, WDR75 / Fold change vs veh, WDR75 / RFU, AHCTF1 / Fold change vs veh, AHCTF1 / RFU, TFRC / Fold change vs veh, TFRC / RFU, ZDHHC17 / Fold change vs veh, ZDHHC17 / RFU, NOM1 / Fold change vs veh, NOM1 / RFU, ARL8B / Fold change vs veh, ARL8B / RFU, ZBTB11 / Fold change vs veh, ZBTB11 / RFU, TAMM41 / Fold change vs veh, TAMM41 / RFU, KIAA1704 /// LOC100996395 / Fold change vs veh, KIAA1704 /// LOC100996395 / RFU, ING1 / Fold change vs veh, ING1 / RFU, TRMT61B / Fold change vs veh, TRMT61B / RFU, FUBP3 / Fold change vs veh, FUBP3 / RFU, TP53 / Fold change vs veh, TP53 / RFU, TNKS2 / Fold change vs veh, TNKS2 / RFU, ZFP14 / Fold change vs veh, ZFP14 / RFU, ACTR2 / Fold change vs veh, ACTR2 / RFU, PPP3R1 / Fold change vs veh, PPP3R1 / RFU, PIK3R1 / Fold change vs veh, PIK3R1 / RFU, HNRNPA1 / Fold change vs veh, HNRNPA1 / RFU, RNF170 / Fold change vs veh, RNF170 / RFU, ZNF28 / Fold change vs veh, ZNF28 / RFU, RNGTT / Fold change vs veh, RNGTT / RFU, OGT / Fold change vs veh, OGT / RFU, BRD1 / Fold change vs veh, BRD1 / RFU, MARS / Fold change vs veh, MARS / RFU, ZNF655 / Fold change vs veh, ZNF655 / RFU, FAHD1 / Fold change vs veh, FAHD1 / RFU, BDP1 / Fold change vs veh, BDP1 / RFU, LRRCC1 / Fold change vs veh, LRRCC1 / RFU, ARID1A / Fold change vs veh, ARID1A / RFU, ZNF146 / Fold change vs veh, ZNF146 / RFU, ZNF330 / Fold change vs veh, ZNF330 / RFU, GPN3 / Fold change vs veh, GPN3 / RFU, C9orf123 / Fold change vs veh, C9orf123 / RFU, N4BP2L2 / Fold change vs veh, N4BP2L2 / RFU, ARFIP1 / Fold change vs veh, ARFIP1 / RFU, FAM179B / Fold change vs veh, FAM179B / RFU, BCL10 / Fold change vs veh, BCL10 / RFU, UHRF1BP1L / Fold change vs veh, UHRF1BP1L / RFU, BET1 / Fold change vs veh, BET1 / RFU, CNOT2 / Fold change vs veh, CNOT2 / RFU, ZNF268 / Fold change vs veh, ZNF268 / Fold change vs veh, ZNF507 / RFU, DGCR2 / Fold change vs veh, DGCR2 / RFU, WDSUB1 / Fold change vs veh, WDSUB1 / Fold change vs veh, HSP90B1 /// MIR3652 / RFU, ADSS / Fold change vs veh, ADSS / RFU, GK / Fold change vs veh, GK / RFU, ZNF148 / Fold change vs veh, ZNF148 / RFU, TAF9 / Fold change vs veh, TAF9 / RFU, SLC1A5 / Fold change vs veh, SLC1A5 / RFU, SLMO2 / Fold change vs veh, SLMO2 / RFU, ABCC4 / Fold change vs veh, ABCC4 / RFU, LOC101060439 /// RAP1B / Fold change vs veh, LOC101060439 /// RAP1B / RFU, RFX7 / Fold change vs veh, RFX7 / RFU, GTPBP10 / Fold change vs veh, GTPBP10 / RFU, CNEP1R1 / Fold change vs veh, CNEP1R1 / RFU, BIVM-ERCC5 /// ERCC5 / Fold change vs veh, BIVM-ERCC5 /// ERCC5 / RFU, ILF3 / Fold change vs veh, ILF3 / RFU 11762660_at / Fold change /veh 11762660_at / RFU VCAN (11757783_s_at) / Fold change /veh VCAN (11757783_s_at) / RFU DDX43 (11728927_at) / Fold change /veh DDX43 (11728927_at) / RFU KRT8 (11758188_x_at) / Fold change /veh KRT8 (11758188_x_at) / RFU NKD1 (11759106_at) / Fold change /veh NKD1 (11759106_at) / RFU SRD5A1 (11742802_a_at) / Fold change /veh SRD5A1 (11742802_a_at) / RFU TPSAB1 /// TPSB2 (11721975_s_at) / Fold change /veh TPSAB1 /// TPSB2 (11721975_s_at) / RFU GSTM3 (11746129_a_at) / Fold change /veh GSTM3 (11746129_a_at) / RFU IL23R (11737362_x_at) / Fold change /veh IL23R (11737362_x_at) / RFU TMEM51 (11727254_a_at) / Fold change /veh TMEM51 (11727254_a_at) / RFU PIWIL2 (11732686_x_at) / Fold change /veh PIWIL2 (11732686_x_at) / RFU ORM1 (11744905_x_at) / Fold change /veh ORM1 (11744905_x_at) / RFU CCDC152 (11743942_at) / Fold change /veh CCDC152 (11743942_at) / RFU ECM1 (11717891_a_at) / Fold change /veh ECM1 (11717891_a_at) / RFU IL23R (11748794_a_at) / Fold change /veh IL23R (11748794_a_at) / RFU TNFAIP8L3 (11732012_x_at) / Fold change /veh TNFAIP8L3 (11732012_x_at) / RFU MBOAT4 (11741988_at) / Fold change /veh MBOAT4 (11741988_at) / RFU 11764193_at / Fold change /veh 11764193_at / RFU TMEM53 (11763286_at) / Fold change /veh TMEM53 (11763286_at) / RFU MAGEB2 (11727129_at) / Fold change /veh MAGEB2 (11727129_at) / RFU TMEM200A (11744735_a_at) / Fold change /veh TMEM200A (11744735_a_at) / RFU CCDC152 (11751479_a_at) / Fold change /veh CCDC152 (11751479_a_at) / RFU FAM211A (11726209_a_at) / Fold change /veh FAM211A (11726209_a_at) / RFU RGS16 (11746705_a_at) / Fold change /veh RGS16 (11746705_a_at) / RFU VCAN (11755009_s_at) / Fold change /veh VCAN (11755009_s_at) / RFU RHOB (11743442_s_at) / Fold change /veh RHOB (11743442_s_at) / RFU RGS16 (11720943_a_at) / Fold change /veh RGS16 (11720943_a_at) / RFU RGS16 (11720944_at) / Fold change /veh RGS16 (11720944_at) / RFU, VPS4B / Fold change vs veh, VPS4B / RFU, CREB1 / Fold change vs veh, CREB1 / RFU, DNAJC13 / Fold change vs veh, DNAJC13 / RFU, GNAQ / Fold change vs veh, GNAQ / RFU, CDK5R1 / Fold change vs veh, CDK5R1 / RFU, ZRANB3 / Fold change vs veh, ZRANB3 / RFU, CUL4A / Fold change vs veh, CUL4A / RFU, CCNY / Fold change vs veh, CCNY / RFU, UFL1 / Fold change vs veh, UFL1 / RFU, COG3 / Fold change vs veh, COG3 / RFU, DIAPH2 / Fold change vs veh, DIAPH2 / RFU, SKA2 / Fold change vs veh, SKA2 / RFU, AFF3 / Fold change vs veh, AFF3 / RFU, LMF1 / Fold change vs veh, LMF1 / RFU, IPO11 / Fold change vs veh, IPO11 / RFU, DFFB / Fold change vs veh, DFFB / RFU, FOXP1 / Fold change vs veh, FOXP1 / RFU, CARD8 / Fold change vs veh, CARD8 / RFU, STRN3 / Fold change vs veh, STRN3 / RFU, ADK / Fold change vs veh, ADK / RFU, RASSF2 / Fold change vs veh, RASSF2 / RFU, WIPF1 / Fold change vs veh, WIPF1 / RFU, LARP1B / Fold change vs veh, LARP1B / RFU, RASA1 / Fold change vs veh, RASA1 / RFU, RB1 / Fold change vs veh, RB1 / RFU, PPFIA1 / Fold change vs veh, PPFIA1 / RFU, MAT2A / Fold change vs veh, MAT2A / RFU, CCT5 / Fold change vs veh, CCT5 / RFU, WDR92 / Fold change vs veh, WDR92 / RFU, CUX1 / Fold change vs veh, CUX1 / RFU, TTC7A / Fold change vs veh, TTC7A / RFU, TMEM135 / Fold change vs veh, TMEM135 / RFU, DEPTOR / Fold change vs veh, DEPTOR / RFU, CPM / Fold change vs veh, CPM / RFU, DNAJB6 / Fold change vs veh, DNAJB6 / RFU, CACNA2D3 / Fold change vs veh, CACNA2D3 / RFU, DTX4 / Fold change vs veh, DTX4 / RFU, TFCP2 / Fold change vs veh, TFCP2 / RFU, GMCL1 /// GMCL1P1 / Fold change vs veh, GMCL1 /// GMCL1P1 / RFU, AEBP2 / Fold change vs veh, AEBP2 / RFU, SNHG1 /// SNORD22 /// SNORD25 /// SNORD26 /// SNORD27 /// SNORD28 /// SNORD29 /// SNORD31 / Fold change vs veh, SNHG1 /// SNORD22 /// SNORD25 /// SNORD26 /// SNORD27 /// SNORD28 /// SNORD29 /// SNORD31 / Fold change (Aza/veh), C12orf56 (ProbeSet 11735607_a_at) / Fold change (ACY-1035/veh), C12orf56 (ProbeSet 11735607_a_at) / Fold change (Aza/veh), FGFR1OP (ProbeSet 11751329_s_at) / Fold change (ACY-1035/veh), FGFR1OP (ProbeSet 11751329_s_at) / Fold change (Aza/veh), VPS36 (ProbeSet 11739960_a_at) / Fold change (ACY-1035/veh), VPS36 (ProbeSet 11739960_a_at) / RFU SYPL1 (11715823_x_at) / Fold change /veh SYPL1 (11715823_x_at) / RFU IGFBP7 (11715501_s_at) / Fold change /veh IGFBP7 (11715501_s_at) / RFU REEP3 (11722064_at) / Fold change /veh REEP3 (11722064_at) / RFU IGLL1 (11728026_x_at) / Fold change /veh IGLL1 (11728026_x_at): dose or concentration left out as unconfirmed. The following applies: MV-4-11 cells, 48 hours.

As to `Nc1ccc(-c2cccs2)cc1NC(=O)c1ccc2c(c1)cc(C1CC1)n2CCN1CCOCC1` [ACY-1035], the “RFU C5orf56 (11738089_at)” value turned out to be 10.10 RFU.
